The record followed here is US20230183292A1, “IMMUNOMODULATORS” (priority 2020, published 2023).

Starred links: 1 amine or outer side, 2 acyl side, 3 side chain; linkers in the order of their positions; H or OH if unused. Positions of bridges follow the written chain, without caps; N, C: chain ends. Non-standard residues stand in square brackets, D forms with d. Residues, ends and D or L forms follow the SMILES beside them. *: point of attachment. X2 = C[C@H](CCC(=O)NCCCN(CCCCNC(=O)CC[C@@H](C)[C@@H]1CC[C@H]2[C@@H]3[C@H](O)C[C@@H]4C[C@H](O)CC[C@]4(C)[C@H]3C[C@H](O)[C@@]21C)*)[C@H]1CC[C@H]2[C@@H]3[C@H](O)C[C@@H]4C[C@H](O)CC[C@]4(C)[C@H]3C[C@H](O)[C@]12C; X15 = C[C@H](CCC(=O)NCCCCNc1c(*)c(=O)c1=O)[C@H]1CC[C@H]2[C@@H]3[C@H](O)C[C@@H]4C[C@H](O)CC[C@]4(C)[C@H]3C[C@H](O)[C@]12C; Cholyl = C[C@H](CCC(=O)*)[C@H]1CC[C@H]2[C@@H]3[C@H](O)C[C@@H]4C[C@H](O)CC[C@]4(C)[C@H]3C[C@H](O)[C@]12C; Trp(1-CH2CO) = O=C([C@H](Cc1cn(CC(=O)[*:3])c2ccccc12)N[*:1])[*:2]; Trp(1-CH2COOH) = N[C@@H](Cc1cn(CC(=O)O)c2ccccc12)C(=O)O; Hyp = O=C(O)[C@@H]1C[C@@H](O)CN1; X12 = O=c1c([*:1])c([*:2])c1=O; NMeNle = CCCC[C@H](NC)C(=O)O; NMeA = CN[C@@H](C)C(=O)O; Dab = NCC[C@H](N)C(=O)O; Dap = NC[C@H](N)C(=O)O

The experiment has as its target T1, PD-1/PD-L1 (Homo sapiens, UniProt Q9NZQ7).
T1 construct: TVMV protease site (C); made in house; host or cells: HEK293T cells
Briefly: PD-1/PD-L1 Homogenous Time-Resolved Fluorescence (HTRF) binding assay. The conditions noted are these: PD-L1-His 10 nM, PD-1-Ig 20 nM; read-out: HTRF IC50. In short, it runs like this:
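Inhibitors pre-incubated 15 min with PD-L1-His (10 nM final) in dPBS, 0.1% BSA, 0.05% Tween-20, then 15 min with PD-1-Ig (20 nM final). Eu-cryptate anti-Ig (1 nM) and APC anti-His (20 nM) added, 30 min equilibration; HTRF 665/620 nm ratio. Human ECD proteins from HEK293T.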
(TR-FRET usually uses a lanthanide donor and a delayed reading to cut background.)

T1 sequence (Q9NZQ7 18-239): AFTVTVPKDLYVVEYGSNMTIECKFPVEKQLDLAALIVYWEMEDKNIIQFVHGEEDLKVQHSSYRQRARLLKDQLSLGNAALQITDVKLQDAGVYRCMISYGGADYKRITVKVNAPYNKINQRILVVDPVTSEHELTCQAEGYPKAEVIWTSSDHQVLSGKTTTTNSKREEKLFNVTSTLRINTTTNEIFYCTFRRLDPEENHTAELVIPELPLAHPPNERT

As to `CCCC[C@H]1C(=O)N(C)[C@@H](CCCC)C(=O)N[C@@H](CC(C)C)C(=O)N[C@H](C(=O)NCC(N)=O)CSCC(=O)N[C@@H](Cc2ccc(O)cc2)C(=O)N(C)[C@@H](C)C(=O)N[C@@H](CC(N)=O)C(=O)N2CCC[C@H]2C(=O)N[C@@H](CNc2c(NCCCCNC(=O)CC[C@@H](C)[C@H]3CC[C@H]4[C@@H]5[C@H](O)C[C@@H]6C[C@H](O)CC[C@]6(C)[C@H]5C[C@H](O)[C@]34C)c(=O)c2=O)C(=O)N[C@@H](CC(C)C)C(=O)N2C[C@H](O)C[C@H]2C(=O)N[C@@H](Cc2c[nH]c3ccccc23)C(=O)N[C@@H](CCNc2c(NCCCCNC(=O)CC[C@@H](C)[C@H]3CC[C@H]4[C@@H]5[C@H](O)C[C@@H]6C[C@H](O)CC[C@]6(C)[C@H]5C[C@H](O)[C@]34C)c(=O)c2=O)C(=O)N[C@@H](Cc2cn(CC(=O)O)c3ccccc23)C(=O)N1C` [Example 5001] ({CH2CO}-Y[NMeA]NP[Dap](X15)L[Hyp]W[Dab](X15)[Trp(1-CH2COOH)][NMeNle][NMeNle]LCG-NH2; thioether N-14; N-terminus assumed), the IC50 came out at 0.7 nM.
In the case of `CCCC[C@H]1C(=O)N(C)[C@@H](CCCC)C(=O)N[C@@H](CC(C)C)C(=O)N[C@H](C(=O)NCC(N)=O)CSCC(=O)N[C@@H](Cc2ccc(O)cc2)C(=O)N(C)[C@@H](C)C(=O)N[C@@H](CC(N)=O)C(=O)N2CCC[C@H]2C(=O)N[C@H]2CNc3c(c(=O)c3=O)NCC[C@H](NC(=O)[C@H](Cc3c[nH]c4ccccc34)NC(=O)[C@@H]3C[C@@H](O)CN3C(=O)[C@H](CC(C)C)NC2=O)C(=O)N[C@@H](Cc2cn(CC(=O)N(CCCCNC(=O)CC[C@@H](C)[C@@H]3CC[C@H]4[C@@H]5[C@H](O)C[C@@H]6C[C@H](O)CC[C@]6(C)[C@H]5C[C@H](O)[C@@]43C)CCCNC(=O)CC[C@@H](C)[C@H]3CC[C@H]4[C@@H]5[C@H](O)C[C@@H]6C[C@H](O)CC[C@]6(C)[C@H]5C[C@H](O)[C@]34C)c3ccccc23)C(=O)N1C` [Example 6001] ({CH2CO}-Y[NMeA]NP[Dap]L[Hyp]W[Dab][Trp(1-CH2CO)](X2)[NMeNle][NMeNle]LCG-NH2; linker 5-9 via X12; thioether N-14) it was 850 nM.
Regarding `CCCC[C@H]1C(=O)N(C)[C@@H](CCCC)C(=O)N[C@@H](CC(C)C)C(=O)N[C@H](C(=O)NCC(N)=O)CSCC(=O)N[C@@H](Cc2ccc(O)cc2)C(=O)N(C)[C@@H](C)C(=O)N[C@@H](CC(N)=O)C(=O)N2CCC[C@H]2C(=O)N[C@@H](CNC(=O)CC[C@@H](C)[C@H]2CC[C@H]3[C@@H]4[C@H](O)C[C@@H]5C[C@H](O)CC[C@]5(C)[C@H]4C[C@H](O)[C@]23C)C(=O)N[C@@H](CC(C)C)C(=O)N2C[C@H](O)C[C@H]2C(=O)N[C@@H](Cc2c[nH]c3ccccc23)C(=O)N[C@@H](CCNC(=O)CC[C@@H](C)[C@H]2CC[C@H]3[C@@H]4[C@H](O)C[C@@H]5C[C@H](O)CC[C@]5(C)[C@H]4C[C@H](O)[C@]23C)C(=O)N[C@@H](Cc2cn(CC(=O)N(CCCCNC(=O)CC[C@@H](C)[C@@H]3CC[C@H]4[C@@H]5[C@H](O)C[C@@H]6C[C@H](O)CC[C@]6(C)[C@H]5C[C@H](O)[C@@]43C)CCCNC(=O)CC[C@@H](C)[C@H]3CC[C@H]4[C@@H]5[C@H](O)C[C@@H]6C[C@H](O)CC[C@]6(C)[C@H]5C[C@H](O)[C@]34C)c3ccccc23)C(=O)N1C` [Example 7001] ({CH2CO}-Y[NMeA]NP[Dap](Cholyl)L[Hyp]W[Dab](Cholyl)[Trp(1-CH2CO)](X2)[NMeNle][NMeNle]LCG-NH2; thioether N-14), the IC50 came out at 2 nM.

As a reminder, the IC50 is the concentration needed to halve the response being measured.
